Calls of active or inactive are those of the source.
Key:
[1] = molecular target: NAD-dependent protein deacylase sirtuin-5, mitochondrial (Homo sapiens, UniProt Q9NXA8); test: SIRT5 desuccinylase inhibitors, dose response, biochemical, fluorescence imaging, cherry-pick, set 5 (AID 720591);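 note: desuccinylation of succinyl peptide AMC substrate read as fluorescence after trypsin release; potency of inhibitors that lower fluorescence and may act on trypsin instead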
[2] = molecular target: T1, Oxysterols receptor LXR-beta (Homo sapiens, UniProt P55055); assay type: functional, cell-based;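 note: Cell-based luminescence dose-response assay of agonist activity at LXR, run as a confirmatory counterscreen to a daf-12 agonist screen; HEK293 cells with Gal4-LXR fusion and GAL4-driven luciferase reporter; agonist potency from rising luciferase signal of a Gal4-LXR reporter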
T1 sequence (P55055 whole entry): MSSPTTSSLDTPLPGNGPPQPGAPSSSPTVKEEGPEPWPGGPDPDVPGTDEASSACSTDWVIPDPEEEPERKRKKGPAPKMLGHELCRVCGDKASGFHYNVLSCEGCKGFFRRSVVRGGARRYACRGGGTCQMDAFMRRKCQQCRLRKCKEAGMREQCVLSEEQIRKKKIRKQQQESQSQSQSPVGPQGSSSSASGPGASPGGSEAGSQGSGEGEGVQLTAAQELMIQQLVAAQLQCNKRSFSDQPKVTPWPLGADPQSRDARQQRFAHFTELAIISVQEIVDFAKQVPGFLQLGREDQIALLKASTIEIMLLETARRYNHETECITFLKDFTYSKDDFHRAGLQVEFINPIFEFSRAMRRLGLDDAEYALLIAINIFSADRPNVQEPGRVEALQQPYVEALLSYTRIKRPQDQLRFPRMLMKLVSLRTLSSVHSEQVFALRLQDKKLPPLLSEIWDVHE

[3] = cells
[4] = P. falciparum 3D7-ScDHODH growth inhibitors, dose response, SYBR Green, dry powder samples (AID 1159570); assay type: functional, cell-based;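 note: parasite growth measured after 72 hours of compound exposure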
[5] = P. falciparum Dd2 growth inhibitors, dose response, SYBR Green, cherry-picked samples (AID 1159567); assay type: functional, cell-based
[6] = P. falciparum Dd2 growth inhibitors, dose response, SYBR Green, dry powder samples (AID 1159566); assay type: functional, cell-based;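 note: potency for growth inhibition with lower SYBR green DNA signal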
[7] = P. falciparum ATP4 D1247Y mutant growth inhibitors, dose response, NITD609-resistant line, SYBR Green, dry powder (AID 1159571); assay type: functional, cell-based;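 note: parasites synchronized at ring stage by sorbitol before testing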
[8] = molecular target: T2, Heat shock factor protein 1 (Mus musculus, UniProt P38532); test: HSF1 potentiators in luciferase reporter cells, confirmation, cell-based, NIH3T3, luminescence, dose retest (AID 435004); assay type: functional;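 note: stress induced by proteasome inhibitor MG132 added 30 min after compound; luciferase reporter driven by HSF1 response element in NIH3T3 cells; actives raise luminescence as potentiators of the MG132 stress response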
T2 sequence (P38532 whole entry): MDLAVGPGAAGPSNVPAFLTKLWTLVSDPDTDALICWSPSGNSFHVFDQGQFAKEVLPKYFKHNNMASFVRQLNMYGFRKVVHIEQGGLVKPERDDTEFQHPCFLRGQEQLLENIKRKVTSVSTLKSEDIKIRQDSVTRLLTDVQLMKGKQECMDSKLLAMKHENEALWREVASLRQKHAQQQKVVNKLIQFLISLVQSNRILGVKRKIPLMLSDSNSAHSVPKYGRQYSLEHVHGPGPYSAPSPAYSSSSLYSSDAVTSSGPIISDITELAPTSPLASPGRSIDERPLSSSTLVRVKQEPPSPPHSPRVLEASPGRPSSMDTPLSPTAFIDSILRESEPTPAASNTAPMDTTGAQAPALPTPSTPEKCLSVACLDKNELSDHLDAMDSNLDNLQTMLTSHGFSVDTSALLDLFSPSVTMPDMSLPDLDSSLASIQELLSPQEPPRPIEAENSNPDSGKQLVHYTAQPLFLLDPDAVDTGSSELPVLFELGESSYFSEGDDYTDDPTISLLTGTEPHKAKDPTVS

[9] = ADAM10 inhibitors, peptide cleavage, dose response, biochemical, QFRET (AID 743254);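 note: ADAM10 enzyme with the DM2 quenched FRET peptide as substrate; EDANS fluorescence gain as the protease cuts the substrate; inhibitor potency against ADAM10 proteolytic activity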
[10] = molecular target: Disintegrin and metalloproteinase domain-containing protein 17 (Homo sapiens, UniProt P78536); test: ADAM17 protease inhibitors, dose response, counter-screen for ADAM10 exosite inhibitor project, biochemical, quenched FRET substrate (AID 743253)
[11] = HeLa 2N DNA content increase, dose response, cell-based, IC50 (AID 1117349); assay type: functional
[12] = Dose-response inhibition of insulin secretion in a rat insulinoma line at 5 mM glucose (AID 1117331); assay type: functional, cell-based; conditions: INS-1E
[13] = half-maximal inhibitory concentration for glucagon-like peptide-1 release, STC-1 cell line, dose-response (AID 1117345); assay type: functional, cell-based
[14] = HeLa 4N DNA content increase, dose response, cell-based, IC50 (AID 1117351); assay type: functional
[15] = Glucagon-like peptide 1 release potency, NCI-H716 cell line, dose-response, half-maximal inhibitory concentration (AID 1117344); assay type: functional, cell-based
[16] = P. falciparum late gametocyte killing, dose response, luminescence (AID 1117278); assay type: functional, cell-based;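 note: gametocytes exposed to compound for 24 hours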
[17] = Jurkat T cell cytotoxicity, dose response, cytotoxicity control for P. falciparum gametocyte viability project, luminescence (AID 1117277); assay type: functional, cell-based;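 note: potency reflects loss of cellular ATP meaning fewer viable cells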
[18] = inhibitors of PGC1a acetylation in cells, dose response, cell-based, cherry-picked samples (AID 720514); assay type: functional;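 note: potency may reflect raised or lowered acetylation signal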
[19] = P. falciparum Dd2 growth inhibitors, dose response, SYBR Green, dry powder samples, set 9 (AID 1159568); assay type: functional, cell-based
[20] = molecular target: Phospholipase D2 (Homo sapiens, UniProt O14939); test: PLD2 Cellular Concentration Response Study.; assay type: functional
[21] = molecular target: Phospholipase D1 (Homo sapiens, UniProt Q13393); test: PLD1 Cellular Concentration Response Study.; assay type: functional
[22] = Late-stage results from the probe development effort to identify antagonists of arginine vasopressin receptor 1a (AVPR1a): fluorescence-based cell-based dose response AVPR1a inhibition assay.; assay type: functional
[23] = molecular target: Vasopressin V1b receptor (Homo sapiens, UniProt P47901); test: Late-stage results from the probe development effort to identify antagonists of arginine vasopressin receptor 1a (AVPR1a): fluorescence-based cell-based dose response AVPR1b inhibition counterscreen assay.; assay type: functional
[24] = molecular target: Vasopressin V2 receptor (Homo sapiens, UniProt P30518); test: Late-stage results from the probe development effort to identify antagonists of arginine vasopressin receptor 1a (AVPR1a): fluorescence-based cell-based dose response AVPR2 inhibition counterscreen assay.; assay type: functional
[25] = Late-stage results from the probe development effort to identify antagonists of arginine vasopressin receptor 1a (AVPR1a): fluorescence-based cell-based dose response OXTR inhibition counterscreen assay.; assay type: functional
[26] = molecular target: Paired box protein Pax-8 (Homo sapiens, UniProt Q06710); test: inhibitors of PAX8-driven TPO luciferase reporter, dose response, RMG-I cells, cherry-pick (AID 687027); assay type: functional, cell-based;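 note: luciferase reporter driven by Pax8 target thyroperoxidase promoter measured by SteadyGlo luminescence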
[27] = CTGF mRNA reduction under YAP1 overexpression, dose response, mechanism study for YAP1 pathway inhibitor project, DLD1 cells, RT-qPCR, cherry-pick (AID 1053127); assay type: functional, cell-based; conditions: DLD-1
[28] = NIH:OVCAR-3 ovarian cancer cell cytotoxicity, dose response, PAX8 inhibitor project, plate reader, dry powder samples (AID 743044); assay type: functional, cell-based
[29] = IGROV1 ovarian cancer cell cytotoxicity, dose response, PAX8 inhibitor project, plate reader, dry powder samples (AID 743043); assay type: functional, cell-based; conditions: IGROV-1
[30] = YAP1 pathway inhibition via CTGF transcript levels, dose response, cell-based, DLD1 colon cancer, RT-qPCR, cherry-pick (AID 1053122); assay type: functional; conditions: Cancer cell lines
[31] = cytotoxicity in OVCAR8 ovarian cancer cells, dose response, PAX8 project, cell-based, plate reader, dry powder samples (AID 743197); assay type: functional; conditions: OVCAR-8

Vasopressin V1b receptor, sequence (P47901 whole entry): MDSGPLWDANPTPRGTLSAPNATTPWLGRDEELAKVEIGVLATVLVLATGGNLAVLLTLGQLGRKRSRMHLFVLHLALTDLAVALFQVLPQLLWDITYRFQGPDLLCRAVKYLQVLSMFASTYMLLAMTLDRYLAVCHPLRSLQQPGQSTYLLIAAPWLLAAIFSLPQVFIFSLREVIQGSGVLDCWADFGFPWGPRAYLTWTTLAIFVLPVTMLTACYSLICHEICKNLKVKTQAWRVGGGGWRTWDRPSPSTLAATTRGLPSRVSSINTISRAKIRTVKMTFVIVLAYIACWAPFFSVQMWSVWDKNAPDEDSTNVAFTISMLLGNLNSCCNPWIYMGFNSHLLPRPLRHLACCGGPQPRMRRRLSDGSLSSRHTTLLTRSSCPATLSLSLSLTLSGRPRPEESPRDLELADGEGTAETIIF
Vasopressin V2 receptor, sequence (P30518 whole entry): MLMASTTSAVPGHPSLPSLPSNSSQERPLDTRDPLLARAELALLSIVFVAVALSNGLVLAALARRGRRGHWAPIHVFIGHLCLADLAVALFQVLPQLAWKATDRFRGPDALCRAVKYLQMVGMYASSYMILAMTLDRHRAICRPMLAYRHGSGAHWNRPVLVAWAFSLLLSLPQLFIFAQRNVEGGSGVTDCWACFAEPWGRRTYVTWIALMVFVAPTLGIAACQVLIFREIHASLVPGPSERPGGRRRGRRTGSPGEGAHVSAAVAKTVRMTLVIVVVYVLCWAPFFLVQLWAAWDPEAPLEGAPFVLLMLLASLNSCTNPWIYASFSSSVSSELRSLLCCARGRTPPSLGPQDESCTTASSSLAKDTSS
NAD-dependent protein deacylase sirtuin-5, mitochondrial, sequence (Q9NXA8 whole entry, the tested form may be a part): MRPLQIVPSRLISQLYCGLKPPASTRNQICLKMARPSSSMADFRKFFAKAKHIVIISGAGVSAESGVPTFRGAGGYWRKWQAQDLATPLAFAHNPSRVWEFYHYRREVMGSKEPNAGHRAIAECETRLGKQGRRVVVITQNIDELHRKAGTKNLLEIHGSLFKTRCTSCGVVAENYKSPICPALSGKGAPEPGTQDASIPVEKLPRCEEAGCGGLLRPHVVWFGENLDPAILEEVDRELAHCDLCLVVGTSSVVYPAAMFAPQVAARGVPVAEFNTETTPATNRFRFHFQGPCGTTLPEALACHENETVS
Paired box protein Pax-8, sequence (Q06710 whole entry): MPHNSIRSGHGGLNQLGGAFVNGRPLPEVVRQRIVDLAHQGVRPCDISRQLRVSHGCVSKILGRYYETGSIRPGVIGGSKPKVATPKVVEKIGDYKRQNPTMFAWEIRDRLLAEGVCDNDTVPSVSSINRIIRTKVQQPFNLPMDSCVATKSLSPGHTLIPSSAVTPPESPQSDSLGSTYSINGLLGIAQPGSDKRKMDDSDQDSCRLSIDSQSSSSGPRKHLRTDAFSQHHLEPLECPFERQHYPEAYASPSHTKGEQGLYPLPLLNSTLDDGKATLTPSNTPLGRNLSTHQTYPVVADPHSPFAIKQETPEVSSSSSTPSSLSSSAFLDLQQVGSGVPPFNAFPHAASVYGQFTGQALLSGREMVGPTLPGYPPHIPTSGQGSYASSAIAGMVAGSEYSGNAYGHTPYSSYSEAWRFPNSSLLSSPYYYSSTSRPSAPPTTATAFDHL
Disintegrin and metalloproteinase domain-containing protein 17, sequence (P78536 whole entry, the tested form may be a part): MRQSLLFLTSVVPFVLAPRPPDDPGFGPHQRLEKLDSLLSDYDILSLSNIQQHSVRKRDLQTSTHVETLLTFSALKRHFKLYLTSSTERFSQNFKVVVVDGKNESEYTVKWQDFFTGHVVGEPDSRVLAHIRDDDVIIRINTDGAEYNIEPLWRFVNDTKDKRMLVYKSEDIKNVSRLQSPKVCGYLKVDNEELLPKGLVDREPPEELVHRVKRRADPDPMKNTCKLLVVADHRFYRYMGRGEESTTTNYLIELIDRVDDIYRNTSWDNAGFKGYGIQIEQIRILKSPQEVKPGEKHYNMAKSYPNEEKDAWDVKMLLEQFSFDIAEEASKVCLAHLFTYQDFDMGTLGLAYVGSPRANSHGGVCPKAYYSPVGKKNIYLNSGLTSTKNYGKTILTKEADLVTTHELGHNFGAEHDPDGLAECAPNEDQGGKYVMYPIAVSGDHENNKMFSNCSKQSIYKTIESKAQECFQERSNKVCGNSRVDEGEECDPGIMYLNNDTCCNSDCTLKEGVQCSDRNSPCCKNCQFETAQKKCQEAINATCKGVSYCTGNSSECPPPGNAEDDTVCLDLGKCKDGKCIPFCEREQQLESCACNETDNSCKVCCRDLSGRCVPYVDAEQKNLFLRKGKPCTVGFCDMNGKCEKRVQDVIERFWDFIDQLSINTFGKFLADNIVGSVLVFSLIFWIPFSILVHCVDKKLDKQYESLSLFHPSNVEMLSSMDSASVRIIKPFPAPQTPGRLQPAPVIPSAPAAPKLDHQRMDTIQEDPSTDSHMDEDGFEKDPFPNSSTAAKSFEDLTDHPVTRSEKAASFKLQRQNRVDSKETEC
Phospholipase D2, sequence (O14939 whole entry): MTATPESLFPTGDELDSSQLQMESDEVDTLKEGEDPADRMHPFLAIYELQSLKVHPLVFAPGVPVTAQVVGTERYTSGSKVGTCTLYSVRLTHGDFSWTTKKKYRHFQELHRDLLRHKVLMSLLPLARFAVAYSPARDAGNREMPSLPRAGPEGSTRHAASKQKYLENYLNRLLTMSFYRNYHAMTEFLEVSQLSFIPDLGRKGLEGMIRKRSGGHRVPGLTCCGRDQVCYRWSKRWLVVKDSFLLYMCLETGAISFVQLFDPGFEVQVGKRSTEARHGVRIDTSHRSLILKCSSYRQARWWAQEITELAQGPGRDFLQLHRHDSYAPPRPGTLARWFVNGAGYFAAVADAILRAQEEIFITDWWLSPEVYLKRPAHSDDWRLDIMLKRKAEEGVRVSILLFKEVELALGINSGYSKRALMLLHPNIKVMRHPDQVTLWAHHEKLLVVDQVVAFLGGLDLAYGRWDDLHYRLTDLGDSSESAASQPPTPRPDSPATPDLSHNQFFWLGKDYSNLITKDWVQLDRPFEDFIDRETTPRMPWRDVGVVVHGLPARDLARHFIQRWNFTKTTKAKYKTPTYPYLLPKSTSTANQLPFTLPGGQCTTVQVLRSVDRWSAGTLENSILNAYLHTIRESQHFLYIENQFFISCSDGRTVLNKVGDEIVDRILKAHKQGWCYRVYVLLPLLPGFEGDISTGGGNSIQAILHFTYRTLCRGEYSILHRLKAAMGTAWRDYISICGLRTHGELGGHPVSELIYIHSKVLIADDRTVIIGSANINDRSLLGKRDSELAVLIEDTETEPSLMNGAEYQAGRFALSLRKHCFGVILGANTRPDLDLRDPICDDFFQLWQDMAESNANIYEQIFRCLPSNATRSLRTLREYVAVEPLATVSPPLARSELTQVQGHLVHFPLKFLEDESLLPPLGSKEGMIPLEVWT
Phospholipase D1, sequence (Q13393 whole entry): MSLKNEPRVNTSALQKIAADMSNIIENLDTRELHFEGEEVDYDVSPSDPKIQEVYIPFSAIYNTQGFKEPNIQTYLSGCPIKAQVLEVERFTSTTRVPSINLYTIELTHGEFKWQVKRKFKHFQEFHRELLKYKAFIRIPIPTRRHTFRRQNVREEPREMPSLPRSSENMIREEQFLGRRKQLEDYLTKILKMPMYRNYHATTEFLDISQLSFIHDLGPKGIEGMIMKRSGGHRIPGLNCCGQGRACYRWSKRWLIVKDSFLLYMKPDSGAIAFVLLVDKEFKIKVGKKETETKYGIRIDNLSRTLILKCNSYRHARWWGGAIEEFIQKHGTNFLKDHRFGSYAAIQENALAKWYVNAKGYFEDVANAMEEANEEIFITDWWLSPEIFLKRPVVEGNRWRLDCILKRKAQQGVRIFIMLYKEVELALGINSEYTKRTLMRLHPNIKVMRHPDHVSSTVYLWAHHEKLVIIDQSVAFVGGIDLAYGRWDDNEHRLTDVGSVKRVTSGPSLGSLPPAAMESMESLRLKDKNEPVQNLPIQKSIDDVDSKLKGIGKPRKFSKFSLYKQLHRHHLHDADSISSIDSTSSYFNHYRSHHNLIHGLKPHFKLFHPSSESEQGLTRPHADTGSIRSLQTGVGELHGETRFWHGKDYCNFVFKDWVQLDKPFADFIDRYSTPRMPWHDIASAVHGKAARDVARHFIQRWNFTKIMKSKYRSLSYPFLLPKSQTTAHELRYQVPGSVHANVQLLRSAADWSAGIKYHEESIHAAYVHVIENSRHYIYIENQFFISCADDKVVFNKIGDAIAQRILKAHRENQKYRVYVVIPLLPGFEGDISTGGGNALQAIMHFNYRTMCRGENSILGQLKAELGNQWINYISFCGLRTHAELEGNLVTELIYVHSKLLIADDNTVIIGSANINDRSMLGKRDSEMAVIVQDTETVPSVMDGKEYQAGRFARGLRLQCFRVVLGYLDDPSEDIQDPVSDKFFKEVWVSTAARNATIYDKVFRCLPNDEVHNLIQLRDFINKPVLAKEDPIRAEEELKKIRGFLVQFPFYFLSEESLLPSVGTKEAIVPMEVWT

In the case of CN(C)CCN1CCN(C2CN(Cc3cn(Cc4cccc(Cl)c4)nn3)S(=O)(=O)C2)CC1 (stereo unspecified), the AC50 [1] is reported as > 30 µM (inactive).

For Cc1csc(N/N=C/c2ccccc2F)n1, the EC50 [2] was > 67.6 µM (inactive) and the EC50 [3] was > 67.6 µM (inactive).

With Cc1ccc(-c2ccccc2[C@H]2[C@@H](C#N)N(C(=O)c3cccc(F)c3)[C@H]2CO)cc1 the AC50 [4] was 1.49 µM (active), the AC50 [5] was 2.52 µM (active) and the AC50 [6] was 1.26 µM (active). For the same molecule, the AC50 [7] was 6.78 µM (active).

With O=C(Nc1cccc(Cl)c1)c1cc(S(=O)(=O)NCCc2ccc(Cl)cc2)ccc1F the EC50 [8] was > 260 µM (inactive), the IC50 [9] was > 7.72 µM (active) and the IC50 [10] was > 69.5 µM (inactive).

In the case of CCCCCCCCCCCCCCCCCCNC(=O)OC1CCN(C(=O)OC[C@H](COC(=O)N(Cc2cccc[n+]2CC)C(=O)c2ccccc2OC)OC)CC1 [MINOPAFANT], the IC50 [11] is reported as > 10 µM (inactive), the IC50 [12] is reported as 21.7 µM (inactive) and the IC50 [13] is reported as 13.8 µM (inactive). The IC50 [14] was > 10 µM (inactive) and the IC50 [15] was 9.52 µM (inactive).

With CC(=O)c1ccc(NC(=O)c2ccc(S(=O)(=O)c3ccccc3)cc2)cc1 the IC50 [16] was > 109 µM (inactive) and the IC50 [17] was > 83.3 µM (inactive).

For Fc1cccc(CN2C[C@@H]3N[C@H](C2)[C@@H]3c2ccc(/C=C/c3ccccc3)cc2)c1, the AC50 [18] was 13.4 µM (active) and the AC50 [19] was 4.6 µM (active).

With COc1cccc(C(=O)N2CNC(=O)C23CCN(CCNC(=O)c2ccc4ccccc4c2)CC3)c1 the IC50 [20] was 2.05 µM (active) and the IC50 [21] was 19 µM (active).

In the case of O=C(C1CCN(c2cc(C(F)(F)F)ccn2)CC1)N(CC1CC1)c1ccc(Cl)cc1, the IC50 [22] is reported as 0.0367 µM (active), the IC50 [23] is reported as > 50 µM (inactive) and the IC50 [24] is reported as > 50 µM (inactive). The IC50 [25] was > 50 µM (inactive).

For O=C(Cc1ccncc1)N1CCCCN2[C@H](C1)[C@H](c1ccc(C#Cc3ccccc3F)cc1)[C@@H]2CO, the AC50 [26] was 7.15 µM (active), the AC50 [27] was 0.102 µM (active) and the AC50 [28] was 3.05 µM (active). The AC50 [29] was 10.3 µM (active), the AC50 [30] was 0.175 µM (active) and the AC50 [31] was > 70 µM (inactive).

From ChEMBL document CHEMBL1201862, “PubChem BioAssay data set” (2004)
